Test results as given in article PMC4510645, “Discovery of intramolecular trans-sialidases in human gut microbiota suggests novel mechanisms of mucosal adaptation” (Nature Communications, 2015).
Entries after “also recorded” stand apart in the source; their conditions may differ.

Tests used:
RgNanH [1] = molecular target: T1, RgNanH (Mediterraneibacter gnavus (Ruminococcus gnavus), UniProt A7B557); assay: Specificity against sialyl-oligosaccharides, HPAEC-PAD; format: biochemical, Ruminococcus gnavus ATCC 29149; set-up: key to Activity RgNanH: +: Activity was defined as disappearance of the substrate peak and appearance of a lower-molecular weight peak, which could correspond to the desialylated substrate; details: 37 °C
T1 sequence (A7B557 26-723): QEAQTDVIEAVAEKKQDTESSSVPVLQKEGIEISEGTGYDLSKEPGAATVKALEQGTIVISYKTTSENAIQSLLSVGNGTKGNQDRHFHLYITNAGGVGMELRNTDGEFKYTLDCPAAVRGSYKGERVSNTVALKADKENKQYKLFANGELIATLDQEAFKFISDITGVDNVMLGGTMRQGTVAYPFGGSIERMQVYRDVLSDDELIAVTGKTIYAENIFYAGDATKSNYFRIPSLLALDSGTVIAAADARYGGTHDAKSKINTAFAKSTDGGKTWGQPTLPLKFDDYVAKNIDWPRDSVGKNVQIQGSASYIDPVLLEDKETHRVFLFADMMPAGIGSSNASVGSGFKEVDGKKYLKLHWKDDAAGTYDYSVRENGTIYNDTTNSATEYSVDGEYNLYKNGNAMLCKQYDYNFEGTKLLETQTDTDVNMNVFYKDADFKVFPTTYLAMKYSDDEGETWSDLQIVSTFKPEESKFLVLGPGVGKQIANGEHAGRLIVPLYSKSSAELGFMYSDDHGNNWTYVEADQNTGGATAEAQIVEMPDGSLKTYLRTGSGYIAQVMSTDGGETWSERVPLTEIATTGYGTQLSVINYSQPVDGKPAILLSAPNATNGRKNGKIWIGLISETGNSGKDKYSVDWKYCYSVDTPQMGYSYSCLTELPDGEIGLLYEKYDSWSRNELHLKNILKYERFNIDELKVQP
Experimental: (§1) Figure 2 Specificity of RgNanH towards sialylated oligosaccharides. The enzymes were incubated with sialylated substrates at 37 °C, pH 6.5, overnight and the reaction products were analysed by HPAEC-PAD. Control reactions without enzyme were also performed. The injection peak is marked (inj). Glycerol (gly) was also present in AkmNan0625. (a) Standards (Lac, Neu5Ac, 3′SL and 6′SL), (b) 3′SL, (c) 6′SL and (d) 3'-α-sialyl-N-acetyllactosamine (3′SLacNAc). AkmNan1835 has a similar profile to […].
(§2) The purified enzymes were incubated with the substrate in buffer made from 20 mM Na2HPO4 and 20 mM NaH2PO4 adjusted to pH 6.5 containing 1 mg ml^−1 BSA at 37 °C unless otherwise stated. For 4MU-Neu5Ac, the progression of the reaction was monitored by the release of the MU using a 96-well plate reader (BMG Labtech, Ortenberg, Germany) using fluorescence with an excitation at 340 nm and an emission at 420 nm. For determining the optimal temperature, the assay was carried out in 20 mM PBS at pH 7.4. For determining the optimal pH, the assay was carried out at 37 °C using buffer made from 20 mM Na2HPO4 and 20 mM NaH2PO4 in varying proportions to obtain the desired pH. PNP release from PNP-Neu5Ac was monitored in a similar way measuring absorbance at 405 nm every 60 s. For 3′SL, the reaction was monitored by HPAEC-PAD. An aliquot of the reaction was removed from the main reaction volume at the reaction stopped by boiling for 20 min, the enzyme was then removed by centrifugation at 17,000g for 10 min and filtration with a 0.2-μm filter (Millipore, Billerica, USA). The sugars were separated by HPAEC with an isocratic gradient of 100 mM NaOH and 100 mM NaAC at 1 ml min^−1 on a CarboPac PA1 protected with a guard column and detected using PAD on a Dionex ICS5000 system (Thermo Scientific, Hemel Hempstead, UK). The column was cleaned with 10 ml of 500 mM NaOH and 500 mM NaAc, and the column was re-equilibrated with 100 mM NaOH and 100 mM NaAc. An internal standard of fucose was used to quantify the results.
(§3) For specificity tests against sialylated oligosaccharides (1 mM) and glycoproteins (1 mg ml^−1), 1 nM of enzyme was incubated with the substrate at 37 °C, pH 6.5, overnight.

R. gnavus ATCC 29149 = tested on: R. gnavus ATCC 29149; set-up: method as in PMID 24204617; details: cited from earlier work; for ability of the bacteria to grow on the substrate: R. gnavus ATCC 29149
[2] = tested on: AkmNan0625 and AkmNan1835; assay: Specificity against sialyl-oligosaccharides, HPAEC-PAD (control sialidases); format: biochemical, Akkermansia muciniphila; set-up: key to Activity AkmNan0625 and AkmNan1835: +: Activity was defined as disappearance of the substrate peak and appearance of a lower-molecular weight peak, which could correspond to the desialylated substrate; details: 37 °C; for activity of AkmNan0625 and AkmNan1835 on substrate (in words): pH 6.5; for Activity AkmNan0625 and AkmNan1835: substrate 1 mM, 1 nM enzyme, pH 6.5, overnight
Experimental: as §1
All chemicals were obtained from Sigma (St Louis, USA) unless otherwise stated. The A. muciniphila sialidases, termed here AkmNan0625 and AkmNan1835, were obtained by His-Tag overexpression of their genes (Amuc_0625 and Amuc_1835, respectively)[56] in E. coli BL21(DE3) and subsequent purification to homogeneity by immobilized metal affinity chromatography as described below. The sialylated oligosaccharides and OC were obtained from Carbosynth (Berks, UK).
as §2, §3

RgNanH [3] = molecular target: T1, RgNanH; assay: Kinetic parameters of RgNanH with sialylated substrates; format: biochemical, Ruminococcus gnavus ATCC 29149; details: pH 6.5, 37 °C
Experimental: as §2
For 4MU-Neu5Ac and 3′SL, the rate of hydrolysis without enzyme was not significant, thus raw data were used. However, for pNP-Neu5Ac, the rate of hydrolysis without enzyme was significant, thus the rate with enzyme was corrected by the subtraction of the rate without enzyme at each concentration of substrate. For 3′SL, the rate of reaction was calculated by plotting the amount of substrate remaining over the course of >50 % of the reaction using the following equation[58]: […]
Where k is kcat/KM × enzyme concentration, t is time, [S0] and [St] are substrate concentrations at time 0 and t, respectively.
Kinetic data were obtained from at least duplicate (usually triplicate) experiments, and the kinetic parameters were calculated by fitting the initial raw data to the Michaelis–Menten equation using a nonlinear regression analysis programme (Prism 6, GraphPad, San Diego, USA), and error bars (s.e.m.) are shown.

RgNanH [4] = molecular target: T1, RgNanH; assay: Hydrolysis of sialic acid from glycoproteins monitored by 1H NMR; format: biochemical, Ruminococcus gnavus ATCC 29149; details: glycoprotein 1 mg ml^−1, 1 nM enzyme, 37 °C, pH 6.5, overnight
Experimental: The ability of RgNanH to hydrolyse sialic acid from glycoproteins was investigated by incubation of the enzyme with human α-1-acid glycoprotein (AGP) and fetuin (Fet) both of which are known to contain α2-3 sialyl linkages, while asialo-Fet was also included as a control.
as §3
Extracts (400 μl) were mixed with 200 μl of D2O and 20 μl of a solution of D2O containing 1 mM of TSP (sodium 3-(trimethylsilyl)-propionate-d4). Samples (500 μl) were transferred into a 5-mm NMR tube for spectral acquisition. The ^1H NMR spectra were recorded at 600 MHz on a Bruker Avance spectrometer (Bruker BioSpin GmbH, Rheinstetten, Germany) running Topspin 2.0 software, and were fitted with a cryoprobe and a 60-slot autosampler. Each ^1H NMR spectrum was acquired with 128 scans, a spectral width of 8,012.8 Hz, an acquisition time of 2.04 s and a relaxation delay of 2.0 s. The ‘noesypr1d' presaturation sequence was used to suppress the residual water signal with a low-power selective irradiation at the water frequency during the recycle delay and a mixing time of 100 ms. Spectra were transformed with a 0.3-Hz line broadening, manually phased, baseline corrected and referenced by setting the TSP methyl signal to 0 p.p.m.

RgNanH [5] = molecular target: T1, RgNanH; assay: Inhibition of RgNanH activity against 4MU-Neu5Ac by neuraminidase inhibitors; format: biochemical, Ruminococcus gnavus ATCC 29149; details: 4MU-Neu5Ac 0.51 mM, 1 nM enzyme; Neu5Ac 0-0.3 mM, Lac 0-1.5 mM; pH 6.5, 37 °C
Experimental: Figure 1 Kinetic analysis of the hydrolysis of sialylated substrates by RgNanH in presence or absence of inhibitors. Substrate (a) 4MU-Neu5Ac or (b) PNP-Neu5Ac was incubated with RgNanH ([…] and 0.43 nM, respectively) at 37 °C, pH 6.5 and the release of product measured using a plate reader. (c) Inhibition of RgNanH (1.00 nM) incubated with 4MU-Neu5Ac (0.51 mM) by zanamivir (●), Neu5Ac2en (▪), siastatin B (▴) and OC (♦), the rates are normalized to a % of the uninhibited rate. [I] is the inhibitor concentration. (d) 3′SL was incubated with RgNanH (2.25 nM) and the release of product measured by HPAEC-PAD. Experiments were done at least in duplicate (usually triplicate) and the error bars show the s.e.m.
as §2, with “results. […]” for “results.”

[6] = Spontaneous interconversion of 2,7-anhydro-Neu5Ac and Neu5Ac by 1H NMR; format: physicochemical; details: up to 24 h at 37 °C
Experimental: The products of the reaction were thus further monitored by ^1H nuclear magnetic resonance (NMR). […] (Fig. 3). These peaks are characteristic of 2,7-anhydro-α-N-acetylneuraminic acid (2,7-anhydro-Neu5Ac) and arise from the protons in positions 6 and 7 (Fig. 3a). Peaks corresponding to 2,7-anhydro-Neu5Ac were observed when RgNanH was incubated in presence of 4MU-Neu5Ac (Fig. 3a) or 3′SL (Fig. 3b). […] The signals of 2,7-anhydro-Neu5Ac and their chemical shifts are shown in Supplementary Table 1. This product was absent in control experiments using A. muciniphila sialidases (AkmNan0625 and AkmNan1835) or in absence of enzyme, confirming the specificity of the enzymatic reaction (Supplementary Fig. 5).
Extracts (400 μl) were mixed with 200 μl of D2O and 20 μl of a solution of D2O containing 1 mM of TSP (sodium 3-(trimethylsilyl)-propionate-d4). Samples (500 μl) were transferred into a 5-mm NMR tube for spectral acquisition. The ^1H NMR spectra were recorded at 600 MHz on a Bruker Avance spectrometer (Bruker BioSpin GmbH, Rheinstetten, Germany) running Topspin 2.0 software, and were fitted with a cryoprobe and a 60-slot autosampler. Each ^1H NMR spectrum was acquired with 128 scans, a spectral width of 8,012.8 Hz, an acquisition time of 2.04 s and a relaxation delay of 2.0 s. […]

Neu5Ac-α-2-3-Gal-β-1-4-Glc [3′SL]
Activity RgNanH (RgNanH [1]; substrate 1 mM, 1 nM enzyme, pH 6.5, overnight): +
ability of the bacteria to grow on the substrate (R. gnavus ATCC 29149): grow
activity of AkmNan0625 and AkmNan1835 on substrate (in words) [2]: active
Activity AkmNan0625 and AkmNan1835 [2]: +
Ki (RgNanH [3]; substrate inhibition, s.e.m.): 760 ± 230 µM
kcat (RgNanH [3]; substrate of RgNanH): 0.4283 s⁻¹
KM (RgNanH [3]; substrate of RgNanH, s.e.m.): below detection limit
Km (RgNanH [3]; substrate of RgNanH, s.e.m.): < 100 µM
Vmax (RgNanH [3]; substrate of RgNanH, s.e.m.): 0.0566 ± 0.0057 µM/min

Fet: fetuin, glycoprotein known to contain α2-3 sialyl linkages
activity of RgNanH against glycoprotein (2,7-anhydro-Neu5Ac peaks by 1H NMR) (RgNanH [4]): showed activity; also recorded: substrates

Neu5Ac-α-2-6-Gal-β1-4-Glc [6′SL]
enzymatic activity of RgNanH on substrate (in words) (RgNanH [1]; pH 6.5): no enzymatic activity
ability of the bacteria to grow on the substrate (R. gnavus ATCC 29149): not
activity of AkmNan0625 and AkmNan1835 on substrate (in words) [2]: active
Activity AkmNan0625 and AkmNan1835 [2]: +

OC[C@H]1O[C@@H](O[C@H]2[C@H](O)[C@@H](O)C(O)O[C@@H]2CO)[C@H](O)[C@@H](O)[C@H]1O (mixture of isomers) [lactose]
ability of the bacteria to grow on the substrate (R. gnavus ATCC 29149): not
Inhibition of RgNanH (RgNanH [5]): not inhibited

asialo-Fet: asialo-fetuin, included as a control
activity of RgNanH against glycoprotein (2,7-anhydro-Neu5Ac peaks by 1H NMR) (RgNanH [4]): no change

CC(=O)N[C@H]1[C@H]([C@H](O)[C@H](O)CO)OC(O)(C(=O)O)C[C@@H]1O (stereo partly drawn) [Neu5Ac, sialic acid]
spontaneous conversion between 2,7-anhydro-Neu5Ac and Neu5Ac [6]: no evidence of spontaneous conversion
ability of the bacteria to grow on the substrate (R. gnavus ATCC 29149): not
growth on sole carbon source (R. gnavus ATCC 29149; R. gnavus ATCC 29149 and E1): could not grow
Inhibition of RgNanH (RgNanH [5]): not inhibited

CC(=O)N[C@H]1[C@H]2O[C@@](C(=O)O)(C[C@@H]1O)O[C@@H]2[C@H](O)CO [2,7-anhydro-Neu5Ac, 2,7-anhydro-α-N-acetylneuraminic acid]
spontaneous conversion between 2,7-anhydro-Neu5Ac and Neu5Ac [6]: no spontaneous conversion

AGP: human α-1-acid glycoprotein, known to contain α2-3 sialyl linkages
activity of RgNanH against glycoprotein (2,7-anhydro-Neu5Ac peaks by 1H NMR) (RgNanH [4]): showed activity
activity of RgNanH against glycoprotein (2,7-anhydro-Neu5Ac peaks by 1H NMR) (RgNanH [4]; listed as α-1-AGP): substrates
